Data from ChEMBL document CHEMBL4334495, “Design and Biological Evaluation of m-Xylene Thioether-Stapled Short Helical Peptides Targeting the HIV-1 gp41 Hexameric Coiled-Coil Fusion Complex” (J Med Chem, 2019).
Starred links: 1 amine or outer side, 2 acyl side, 3 side chain; linkers in the order of their positions; H or OH if unused. Positions of bridges follow the written chain, without caps; N, C: chain ends. Non-standard residues stand in square brackets, D forms with d. Residues, ends and D or L forms follow the SMILES beside them. ξ: configuration not given here. mXylylene = c1cc(C[*:1])cc(C[*:2])c1; ξhCys = NC(CCS)C(=O)O

What was measured:
[1] = system: Human immunodeficiency virus 1; assay: (§1) Ratio of EC50 for antiviral activity against T20 resistant HIV1 NL4-3 harboring with V38E/N42T mutant infected in human MT2 cells or CEMx174 5.25 M7 cells in absence of hCS6ERE to EC50 for Antiviral activity against T20 resistant HIV1 NL4-3 harboring with V38E/N42T mutant infected in human MT2 cells or CEMx174 5.25 M7 cells at 150:1 hCS6ERE to compound ratio; type: functional
[2] = system: Human immunodeficiency virus 1; assay: Antiviral activity against X4 tropic HIV-1 subtype-B 3B infected in human MT2 cells or CEMx174 5.25 M7 cells assessed as reduction in p24 Gag protein production at 6:1 ratio of hCS6ERE to compound measured at 4 days post-infection by ELISA; type: functional, cell-based, HIV-1 group M; settings: Human immunodeficiency virus 1, 3B, 96 h
[3] = system: Human immunodeficiency virus 1; assay: as §1, with “T2635” for “T20”, “LAI” for “NL4-3”, “Q66R” for “with V38E/N42T”, “antiviral” for “EC50 for Antiviral”, “12.5:1 ratio of” for “150:1”, “compound” for “compound ratio”; type: functional, M:B_Lai
[4] = system: Human immunodeficiency virus 1; assay: Antiviral activity against R5 tropic HIV-1 subtype-B Bal infected in human MT2 cells or CEMx174 5.25 M7 cells assessed as reduction in p24 Gag protein production at 3:1 ratio of hCS6ERE to compound measured at 4 days post-infection by ELISA; type: functional, cell-based, HIV-1 group M; settings: Human immunodeficiency virus 1, Bal, 96 h
[5] = system: Human immunodeficiency virus 1; assay: Ratio of EC50 for antiviral activity against HIV1 NL4-3 infected in human MT2 cells or CEMx174 5.25 M7 cells in absence of hCS6ERE to EC50 for antiviral activity against HIV1 NL4-3 infected in human MT2 cells or CEMx174 5.25 M7 cells at 5:1 hCS6ERE to compound ratio; type: functional
[6] = system: Human immunodeficiency virus 1; assay: Antiviral activity against T20 resistant HIV1 NL4-3 harboring with V38E/N42T mutant infected in human MT2 cells or CEMx174 5.25 M7 cells assessed as reduction in p24 Gag protein production at 600:1 hCS6ERE to compound ratio measured at 4 days post-infection by ELISA; type: functional, organism-based
[7] = system: Human immunodeficiency virus 1; assay: Antiviral activity against T20 resistant HIV1 NL4-3 harboring with V38E/N42S mutant infected in human MT2 cells or CEMx174 5.25 M7 cells assessed as reduction in p24 Gag protein production at 7000:1 hCS6ERE to compound ratio measured at 4 days post-infection by ELISA; type: functional, organism-based
[8] = system: Human immunodeficiency virus 1; assay: Antiviral activity against R5 tropic HIV-1 subtype-B Bal infected in human MT2 cells or CEMx174 5.25 M7 cells assessed as reduction in p24 Gag protein production at 12:1 ratio of compound to HP23 measured at 4 days post-infection by ELISA; type: functional, cell-based, HIV-1 group M; settings: Human immunodeficiency virus 1, Bal, 96 h
[9] = Metabolic stability in rat liver homogenates assessed as parent compound remaining at 3 to 100 uM after 2 hrs by RP-HPLC analysis; type: ADME, tissue-based; settings: read-out: Stability
[10] = Metabolic stability in rat plasma assessed as parent compound remaining at 3 to 100 uM after 4 hrs by RP-HPLC analysis; type: ADME, cell-free; settings: read-out: Stability
[11] = system: Human immunodeficiency virus 1; assay: Antiviral activity against T2635 resistant HIV1 LAI harboring Q66R mutant infected in human MT2 cells or CEMx174 5.25 M7 cells assessed as reduction in p24 Gag protein production at 25:1 ratio of compound to HP23 measured at 4 days post infection by ELISA; type: functional, organism-based, M:B_Lai
[12] = system: Human immunodeficiency virus 1; assay: Antiviral activity against T20 resistant HIV1 NL4-3 harboring with V38E/N42S mutant infected in human MT2 cells or CEMx174 5.25 M7 cells assessed as reduction in p24 Gag protein production at 7000:1 compound to HP23 ratio measured at 4 days post-infection by ELISA; type: functional, organism-based
[13] = system: Human immunodeficiency virus 1; assay: Antiviral activity against T2635 resistant HIV1 LAI harboring Q66R mutant infected in human MT2 cells or CEMx174 5.25 M7 cells assessed as reduction in p24 Gag protein production at 12.5:1 ratio of compound to HP23 measured at 4 days post infection by ELISA; type: functional, organism-based, M:B_Lai
[14] = target: Envelope glycoprotein gp160 (Human immunodeficiency virus 1) (UniProt Q6QLK5); assay: Ratio of EC50 for inhibition of HIV1 gp41-induced cell-cell fusion between viral envelope expressing human HL2/3 cells to CD4/CCR5 receptor expressing TZM-bl cells in absence of HP23 to EC50 for inhibition of HIV1 gp41-induced cell-cell fusion between viral envelope expressing human HL2/3 cells to CD4/CCR5 receptor expressing TZM-bl cells at 1:1 compound to HP23 ratio
Envelope glycoprotein gp160 (Human immunodeficiency virus 1), sequence (Q6QLK5 1-814): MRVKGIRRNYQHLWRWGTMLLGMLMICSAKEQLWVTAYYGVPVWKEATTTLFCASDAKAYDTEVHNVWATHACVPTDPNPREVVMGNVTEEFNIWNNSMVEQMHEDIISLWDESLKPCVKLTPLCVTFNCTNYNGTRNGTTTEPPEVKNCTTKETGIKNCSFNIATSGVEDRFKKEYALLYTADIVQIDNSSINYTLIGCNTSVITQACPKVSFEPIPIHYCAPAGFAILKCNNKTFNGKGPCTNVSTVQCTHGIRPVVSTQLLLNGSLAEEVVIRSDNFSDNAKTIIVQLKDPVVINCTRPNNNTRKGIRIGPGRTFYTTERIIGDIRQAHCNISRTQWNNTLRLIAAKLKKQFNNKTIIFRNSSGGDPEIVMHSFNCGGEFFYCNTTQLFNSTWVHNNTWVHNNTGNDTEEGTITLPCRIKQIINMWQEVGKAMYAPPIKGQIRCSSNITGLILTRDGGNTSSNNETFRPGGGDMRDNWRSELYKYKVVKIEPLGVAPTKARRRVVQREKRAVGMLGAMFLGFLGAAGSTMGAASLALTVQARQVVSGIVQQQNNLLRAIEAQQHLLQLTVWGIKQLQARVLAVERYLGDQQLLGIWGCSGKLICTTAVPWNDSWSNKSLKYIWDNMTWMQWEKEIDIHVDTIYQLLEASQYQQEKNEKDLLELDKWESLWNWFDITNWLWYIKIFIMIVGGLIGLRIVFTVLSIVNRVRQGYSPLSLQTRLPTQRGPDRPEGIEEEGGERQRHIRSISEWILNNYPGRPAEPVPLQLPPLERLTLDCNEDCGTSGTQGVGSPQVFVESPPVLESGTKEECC

[15] = target: Envelope glycoprotein gp160 (Human immunodeficiency virus 1) (UniProt Q6QLK5); assay: Binding affinity to HIV1 GP41 using GP41 NHR derived N36 peptide assessed as melting temperature at 10 uM incubated for 30 mins by CD spectroscopy
[16] = system: Human immunodeficiency virus 1; assay: Synergistic antiviral activity against HIV1 NL4-3 infected in human MT2 cells or CEMx174 5.25 M7 cells assessed as reduction in p24 Gag protein production by measuring combination index at 5:1 compound to HP23 ratio measured at 4 days post-infection by ELISA; type: functional
[17] = system: Human immunodeficiency virus 1; assay: Antiviral activity against R5 tropic HIV-1 subtype-B Bal infected in human MT2 cells or CEMx174 5.25 M7 cells assessed as reduction in p24 Gag protein production at 6:1 ratio of compound to HP23 measured at 4 days post-infection by ELISA; type: functional, cell-based, HIV-1 group M; settings: Human immunodeficiency virus 1, Bal, 96 h
[18] = system: Human immunodeficiency virus 1; assay: Synergistic antiviral activity against R5 tropic HIV-1 subtype-B Bal infected in human MT2 cells or CEMx174 5.25 M7 cells assessed as reduction in p24 Gag protein production by measuring combination index at 3:1 ratio of hCS6ERE to compound measured at 4 days post-infection by ELISA; type: functional, HIV-1 group M
[19] = system: Human immunodeficiency virus 1; assay: as §1, with “V38E/N42S” for “V38E/N42T”, “HP23” for “hCS6ERE”, “antiviral” for “Antiviral”, “7000:1 compound” for “150:1 hCS6ERE”, “HP23” for “compound”; type: functional
[20] = system: Human immunodeficiency virus 1; assay: Synergistic antiviral activity against X4 tropic HIV-1 subtype-B 3B infected in human MT2 cells or CEMx174 5.25 M7 cells assessed as reduction in p24 Gag protein production by measuring combination index at 6:1 compound to HP23 ratio measured at 4 days post-infection by ELISA; type: functional, HIV-1 group M
[21] = system: Human immunodeficiency virus 1; assay: Ratio of EC50 for antiviral activity against X4 tropic HIV-1 subtype-B 3B infected in human MT2 cells or CEMx174 5.25 M7 cells in absence of HP23 to EC50 for antiviral activity against X4 tropic HIV-1 subtype-B 3B infected in human MT2 cells or CEMx174 5.25 M7 cells at 12:1 compound to HP23 ratio; type: functional, HIV-1 group M

H-EMTWEEWEKKIEEYTKKIEEILK-OH
Ratio EC50 [1]: 1.9 | EC50 [2]: 1.3 nM | Ratio EC50 [3]: 2.7 | EC50 [4]: 1.4 nM | Ratio EC50 [5]: 3.8 | EC50 [6]: 0.8 nM | EC50 [7]: 0.4 nM

CC[C@H](C)[C@H](NC(C)=O)C(=O)N[C@@H](CCC(=O)O)C(=O)N[C@@H](CCC(=O)O)C(=O)N[C@@H](CC(C)C)C(=O)N[C@H](C(=O)NC1CCSCc2cccc(c2)CSCCC(C(=O)N[C@@H](CCC(N)=O)C(=O)N[C@@H](CCC(N)=O)C(=O)N[C@@H](CCCNC(=N)N)C(=O)N[C@@H](CCCCN)C(=O)N[C@@H](CC(N)=O)C(=O)N[C@@H](CCC(=O)O)C(=O)N[C@@H](CCC(=O)O)C(=O)N[C@@H](C)C(=O)N[C@@H](CC(C)C)C(=O)N[C@@H](CCCNC(=N)N)C(=O)N[C@@H](CCC(=O)O)C(=O)N[C@@H](CC(C)C)C(N)=O)NC(=O)[C@H](CCC(N)=O)NC(=O)[C@H](C)NC(=O)[C@H](C)NC1=O)[C@@H](C)CC (stereo partly specified) (Ac-IEELI[ξhCys]AAQ[ξhCys]QQRKNEEALREL-NH2; linker 6-10 via mXylylene)
EC50 [8]: 6 nM | remaining at 2 h, up to 100 µM [9]: 27.4% | remaining at 4 h, up to 100 µM [10]: 100% | EC50 [11]: 39.5 nM | EC50 [12]: 2520 nM | EC50 [13]: 22.9 nM | Ratio EC50 [14]: 2 | Tm [15]: 57.6 °C | CI [16]: 0.4 | EC50 [17]: 6 nM | CI [18]: 0.8 | Ratio EC50 [19]: 2.7 | CI [20]: 0.8 | Ratio EC50 [21]: 2.4
